Results published in PubChem BioAssay (NCI).
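GI50 marks 50% less growth. Definition used: TGI = concentration required for complete inhibition of growth.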

Experiments:
Experiment in all cases: NCI-60 cell line screen, 384-well format
NCI-H226 lung = tested on: NCI-H226 lung
SK-OV-3 ovarian = tested on: SK-OV-3 ovarian
786-0 renal = tested on: 786-0 renal
NCI-H460 NSCLC = tested on: NCI-H460 NSCLC
NCI-H522 lung = tested on: NCI-H522 lung
SN12C renal = tested on: SN12C renal
HOP-92 NSCLC = tested on: HOP-92 NSCLC
SK-MEL-28 melanoma = tested on: SK-MEL-28 melanoma
RXF 393 renal = tested on: RXF 393 renal
HL-60(TB) leukemia = tested on: HL-60(TB) leukemia
UACC-257 melanoma = tested on: UACC-257 melanoma
T-47D breast = tested on: T-47D breast
ACHN renal = tested on: ACHN renal
SNB-19 CNS = tested on: SNB-19 CNS
SF-295 CNS = tested on: SF-295 CNS
OVCAR-8 ovarian = tested on: OVCAR-8 ovarian
NCI-H322M lung = tested on: NCI-H322M lung
OVCAR-5 ovarian = tested on: OVCAR-5 ovarian
DU-145 prostate = tested on: DU-145 prostate
COLO 205 colon = tested on: COLO 205 colon
CAKI-1 renal = tested on: CAKI-1 renal
A498 renal = tested on: A498 renal
K-562 leukemia = tested on: K-562 leukemia
TK-10 renal = tested on: TK-10 renal
HCT-116 colon = tested on: HCT-116 colon
MALME-3M melanoma = tested on: MALME-3M melanoma
SF-268 CNS = tested on: SF-268 CNS
MDA-MB-435 melanoma = tested on: MDA-MB-435 melanoma
BT-549 breast = tested on: BT-549 breast
MCF7 breast = tested on: MCF7 breast
SW-620 colon = tested on: SW-620 colon
NCI-H23 lung = tested on: NCI-H23 lung
U251 glioblastoma = tested on: U251 glioblastoma
PC-3 prostate = tested on: PC-3 prostate
HS 578T breast = tested on: HS 578T breast
IGROV1 ovarian = tested on: IGROV1 ovarian
HCT-15 colon = tested on: HCT-15 colon
MDA-MB-231 breast = tested on: MDA-MB-231 breast
MOLT-4 leukemia = tested on: MOLT-4 leukemia
KM12 colon = tested on: KM12 colon
OVCAR-3 ovarian = tested on: OVCAR-3 ovarian
MDA-MB-468 breast = tested on: MDA-MB-468 breast
EKVX NSCLC = tested on: EKVX NSCLC
UACC-62 melanoma = tested on: UACC-62 melanoma
UO-31 renal = tested on: UO-31 renal
HT29 colon = tested on: HT29 colon
SF-539 CNS = tested on: SF-539 CNS
OVCAR-4 ovarian = tested on: OVCAR-4 ovarian
SK-MEL-5 melanoma = tested on: SK-MEL-5 melanoma
SNB-75 CNS = tested on: SNB-75 CNS
HOP-62 NSCLC = tested on: HOP-62 NSCLC
A549 NSCLC = tested on: A549 NSCLC
SK-MEL-2 melanoma = tested on: SK-MEL-2 melanoma
SR leukemia = tested on: SR leukemia

CC[C@@H]1C(=O)N(C)c2cnc(Nc3ccc(C(=O)NC4CCC(N5CCN(CC6CC6)CC5)CC4)cc3OC)nc2N1C(C)C (stereo partly drawn)
GI50 (NCI-H226 lung): 0.151 µM | TGI (NCI-H226 lung): 1.75 µM | GI50 (SK-OV-3 ovarian): 0.0213 µM | TGI (SK-OV-3 ovarian): 0.176 µM | GI50 ([…]-0 renal): 0.0907 µM | TGI (786-0 renal): 1.15 µM | GI50 (NCI-H460 NSCLC): < 0.01 µM | TGI (NCI-H460 NSCLC): 1.28 µM | GI50 (NCI-H522 lung): < 0.01 µM | TGI (NCI-H522 lung): < 0.01 µM | GI50 (SN12C renal): 0.232 µM | TGI (SN12C renal): 3.34 µM | GI50 (HOP-92 NSCLC): 0.0969 µM | TGI (HOP-92 NSCLC): 1.7 µM | GI50 (SK-MEL-28 melanoma): 0.0876 µM | TGI (SK-MEL-28 melanoma): 2.12 µM | GI50 (RXF 393 renal): < 0.01 µM | TGI (RXF 393 renal): 0.0106 µM | GI50 (HL-60(TB) leukemia): < 0.01 µM | TGI (HL-60(TB) leukemia): < 0.01 µM | GI50 (UACC-257 melanoma): 1.16 µM | TGI (UACC-257 melanoma): 2.39 µM | GI50 (T-47D breast): 0.191 µM | TGI (T-47D breast): 0.897 µM | GI50 (ACHN renal): 0.0892 µM | TGI (ACHN renal): 1.66 µM | GI50 (SNB-19 CNS): 0.0968 µM | TGI (SNB-19 CNS): 2.97 µM | GI50 (SF-295 CNS): 0.0314 µM | TGI (SF-295 CNS): 1.51 µM | GI50 (OVCAR-8 ovarian): 0.0181 µM | TGI (OVCAR-8 ovarian): 0.0385 µM | GI50 (NCI-H322M lung): 0.066 µM | TGI (NCI-H322M lung): 1.1 µM | GI50 (OVCAR-5 ovarian): 0.0389 µM | TGI (OVCAR-5 ovarian): 1.71 µM | GI50 (DU-145 prostate): 0.0166 µM | TGI (DU-145 prostate): 1.2 µM | GI50 (COLO 205 colon): < 0.01 µM | TGI (COLO 205 colon): 1.31 µM | GI50 (CAKI-1 renal): 0.1 µM | TGI (CAKI-1 renal): 1.54 µM | GI50 (A498 renal): 0.0696 µM | TGI (A498 renal): 1.26 µM | GI50 (K-562 leukemia): < 0.01 µM | TGI (K-562 leukemia): 0.0238 µM | GI50 (TK-10 renal): 0.0666 µM | TGI (TK-10 renal): 1.39 µM | GI50 (HCT-116 colon): < 0.01 µM | TGI (HCT-116 colon): 1.03 µM | GI50 (MALME-3M melanoma): 0.0446 µM | TGI (MALME-3M melanoma): 1.76 µM | GI50 (SF-268 CNS): 0.0321 µM | TGI (SF-268 CNS): 1.31 µM | GI50 (MDA-MB-435 melanoma): < 0.01 µM | TGI (MDA-MB-435 melanoma): 0.0137 µM | GI50 (BT-549 breast): 0.0196 µM | TGI (BT-549 breast): 0.159 µM | GI50 (MCF7 breast): 0.011 µM | TGI (MCF7 breast): 1.27 µM | GI50 (SW-620 colon): < 0.01 µM | TGI (SW-620 colon): 0.107 µM | GI50 (NCI-H23 lung): < 0.01 µM | TGI (NCI-H23 lung): 0.0282 µM | GI50 (U251 glioblastoma): 0.0408 µM | TGI (U251 glioblastoma): 1.42 µM | GI50 (PC-3 prostate): 0.0534 µM | TGI (PC-3 prostate): 2.63 µM | GI50 (HS 578T breast): 0.0195 µM | TGI (HS 578T breast): 0.0497 µM | GI50 (IGROV1 ovarian): 0.0442 µM | TGI (IGROV1 ovarian): 1.17 µM | GI50 (HCT-15 colon): 0.0358 µM | TGI (HCT-15 colon): 0.549 µM | GI50 (MDA-MB-231 breast): 0.0424 µM | TGI (MDA-MB-231 breast): 1.79 µM | GI50 (MOLT-4 leukemia): < 0.01 µM | TGI (MOLT-4 leukemia): < 0.01 µM | GI50 (KM12 colon): 0.0103 µM | TGI (KM12 colon): 0.0507 µM | GI50 (OVCAR-3 ovarian): < 0.01 µM | TGI (OVCAR-3 ovarian): 0.145 µM | GI50 (MDA-MB-468 breast): < 0.01 µM | TGI (MDA-MB-468 breast): < 0.01 µM | GI50 (EKVX NSCLC): 0.0371 µM | TGI (EKVX NSCLC): 0.235 µM | GI50 (UACC-62 melanoma): 0.0279 µM | TGI (UACC-62 melanoma): 1.53 µM | GI50 (UO-31 renal): 0.589 µM | TGI (UO-31 renal): 1.87 µM | GI50 (HT29 colon): < 0.01 µM | TGI (HT29 colon): 0.0111 µM | GI50 (SF-539 CNS): 0.0305 µM | TGI (SF-539 CNS): 0.159 µM | GI50 (OVCAR-4 ovarian): 0.222 µM | TGI (OVCAR-4 ovarian): 1.12 µM | GI50 (SK-MEL-5 melanoma): 0.0147 µM | TGI (SK-MEL-5 melanoma): 0.127 µM | GI50 (SNB-75 CNS): 0.0714 µM | TGI (SNB-75 CNS): 2.1 µM | GI50 (HOP-62 NSCLC): 0.0233 µM | TGI (HOP-62 NSCLC): 1.16 µM | GI50 (A549 NSCLC): 0.0416 µM | TGI (A549 NSCLC): 1.04 µM | GI50 (SK-MEL-2 melanoma): < 0.01 µM | TGI (SK-MEL-2 melanoma): 0.0267 µM | GI50 (SR leukemia): < 0.01 µM | TGI (SR leukemia): < 0.01 µM
